# Results as given in article PMC10006169, “A phase I trial of LXS196, a protein kinase C (PKC) inhibitor, for metastatic uveal melanoma” (British Journal of Cancer, 2023).
# Experiments:
# RasGRP3, DUSP6 = experiment: RNAseq gene expression in tumour biopsies; type: in vivo, human
# Method: Detailed DNA and RNA extraction methods and analysis are described in the supplementary appendix.
# RNA libraries were prepared for RNAseq as previously described. Briefly, the total RNA was depleted of ribosomal RNA (rRNA), fragmented, converted to cDNA, and then the next generation sequencing (NGS) library was constructed using the TruSeq RNA v2 Library Preparation Kit (Illumina) with end repair, A-tailing, indexed adaptor ligation and PCR amplification steps. Sequence reads were aligned with STAR [12] to the hg19 human reference genome, and read counts of coding regions were summarised by HTSeq using a reference transcriptome of human Refseq transcripts.
# dog = test system: dog; set-up: method as in ref 20 = [20]; 20. IDEAYA Biosciences. IDE196 (LXS196, Darovasertib) investigator’s brochure. IDEAYA Biosciences; 2022.; details: cited from earlier work
smiles,measurement,setting,value
CC1(N)CCN(c2cccnc2NC(=O)c2nc(-c3ncccc3C(F)(F)F)cnc2N)CC1 [LXS196],MAPK pathway activity as measured by DUSP6 expression,"RasGRP3, DUSP6",trend towards suppression in the PR group
same,RasGRP3 expression on treatment,"RasGRP3, DUSP6; C1D15, QD and BID",decreased in some patients
same,Reversibility of findings,dog; 4-week recovery phase,partial to complete reversibility
same,Potential target organ,"dog; 4-week toxicology study, dog",GI tract
same,Potential toxicity,"dog; single-dose and 4-week repeated dose, dog",decrease in systolic blood pressure
